Structures are written as SMILES. Where a chain is given by its changes, count along the chain named. Entries after “also recorded” stand apart in the source; their conditions may differ.

The target of experiment [1] is T1, AA-as7 kinase (Aurora A LI85V, L201G) (Mus musculus, UniProt P97477, L185V/L201G).
T1 construct: the Aurora A mutant is the double mutant Aurora A (AA-as7); 6-His; made in house; host or cells: Sf9 insect cells (baculovirus, Bac-to-Bac)
T1 sequence (P97477 1-395 L185V/L201G): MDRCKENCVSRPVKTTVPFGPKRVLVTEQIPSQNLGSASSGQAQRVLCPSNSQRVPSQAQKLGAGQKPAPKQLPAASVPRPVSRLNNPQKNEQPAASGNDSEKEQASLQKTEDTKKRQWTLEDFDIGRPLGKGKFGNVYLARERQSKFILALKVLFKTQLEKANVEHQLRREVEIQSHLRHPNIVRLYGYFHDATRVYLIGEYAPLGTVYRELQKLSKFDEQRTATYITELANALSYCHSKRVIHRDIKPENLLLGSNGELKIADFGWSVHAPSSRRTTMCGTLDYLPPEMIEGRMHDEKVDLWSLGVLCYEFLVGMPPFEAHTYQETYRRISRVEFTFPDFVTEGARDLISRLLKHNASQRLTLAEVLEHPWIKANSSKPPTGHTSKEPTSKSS
In words: In vitro kinase assay with AA-as7 and TPX2. Type of experiment: biochemical, murine. To be noted: AA-as7; phosphodonor as labelled. The protocol: (§1) For in vitro labeling, Aurora A/TPX2 complex (on beads) was pre-incubated with 10 μM cold ATP for 10 min to activate the kinase. The beads were washed twice with kinase buffer, and then subjected to kinase assay with 2-5 μg of recombinant protein (such as PHLDA) and 1 μCi of [γ-^32P] ATP. Reactions were terminated by adding SDS sample buffer, separated by SDS-PAGE gel, transferred to PVDF membrane and exposed to Biomax MS film. Aurora A kinase assays were conducted using 1 μCi of [γ-^32P] ATP and 3 μg of Aurora A substrate peptide in a final volume of 30 μl at 30° C. as reported before (Sun, et al, (2008a) Mol. Biol. Cell 19, 3052-3069).
(§2) IC50 values were determined by fitting the data to a sigmoidal dose response curve using GraphPad Prism 4.0 software. Km and Vmax values were derived from the assay described above using various concentrations of AA peptide substrate and ATP. Km and Vmax values were determined using GraphPad Prism 4.0 software.

In another experiment the target is T2, wild-type Aurora A (Mus musculus, UniProt P97477).
T2 construct: 6-His; made in house; host or cells: Sf9 insect cells (baculovirus, Bac-to-Bac)
T2 sequence (P97477 1-395): T1 sequence (P97477 1-395 L185V/L201G) with V185L, G201L
T2 sequence (Q9ULW0 1-747 partner): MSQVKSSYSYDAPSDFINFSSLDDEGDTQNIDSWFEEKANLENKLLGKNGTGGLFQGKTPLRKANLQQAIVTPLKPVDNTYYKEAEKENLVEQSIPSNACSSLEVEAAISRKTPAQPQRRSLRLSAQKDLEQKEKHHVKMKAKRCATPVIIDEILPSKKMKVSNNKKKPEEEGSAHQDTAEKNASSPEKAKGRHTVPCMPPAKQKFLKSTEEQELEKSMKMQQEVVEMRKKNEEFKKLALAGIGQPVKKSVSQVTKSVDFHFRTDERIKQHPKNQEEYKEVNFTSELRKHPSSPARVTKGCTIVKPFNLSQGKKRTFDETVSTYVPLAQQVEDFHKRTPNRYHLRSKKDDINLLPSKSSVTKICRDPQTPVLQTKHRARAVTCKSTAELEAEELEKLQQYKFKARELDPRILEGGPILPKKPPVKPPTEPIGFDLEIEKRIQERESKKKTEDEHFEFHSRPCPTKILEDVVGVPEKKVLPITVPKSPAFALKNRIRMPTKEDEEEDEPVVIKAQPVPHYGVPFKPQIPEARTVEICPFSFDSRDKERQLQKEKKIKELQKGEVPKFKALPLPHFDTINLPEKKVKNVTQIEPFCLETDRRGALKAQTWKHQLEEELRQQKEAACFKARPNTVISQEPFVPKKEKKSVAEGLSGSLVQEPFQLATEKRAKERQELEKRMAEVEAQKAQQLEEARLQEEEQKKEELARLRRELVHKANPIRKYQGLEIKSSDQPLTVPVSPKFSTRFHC
Description: In vitro kinase assay with wild-type Aurora A and TPX2. To be noted: wild-type Aurora A. Type of experiment: biochemical, murine. The procedure:
as §1, §2

The target in experiment [2] is Aurora B-as7 (L138V, L154G-AB) kinase (Homo sapiens, UniProt Q96GD4, L138V/L154G). In words: In vitro kinase assay with AB-as7. The class given is biochemical. Conditions: phosphodonor as labelled.
Aurora B-as7 (L138V, L154G-AB) kinase, sequence (Q96GD4 whole entry L138V/L154G): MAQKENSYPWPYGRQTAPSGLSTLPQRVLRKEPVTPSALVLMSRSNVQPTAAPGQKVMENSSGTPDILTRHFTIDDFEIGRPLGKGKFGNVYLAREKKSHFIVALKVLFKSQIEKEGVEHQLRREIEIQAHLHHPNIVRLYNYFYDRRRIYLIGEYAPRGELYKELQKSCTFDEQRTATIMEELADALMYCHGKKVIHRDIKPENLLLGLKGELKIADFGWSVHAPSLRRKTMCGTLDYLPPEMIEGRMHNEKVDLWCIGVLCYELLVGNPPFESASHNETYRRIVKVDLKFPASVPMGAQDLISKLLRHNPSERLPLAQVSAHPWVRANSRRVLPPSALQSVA
A further experiment deals with wild-type Aurora B (Homo sapiens, UniProt Q96GD4). Description: In vitro kinase assay with wild-type Aurora B. The class given is biochemical.
wild-type Aurora B, sequence (Q96GD4 whole entry): as the sequence (Q96GD4 whole entry L138V/L154G) above, with V138L, G154L counted along it
The test system of the next experiment is MDA cells. Description: Western blot of LIMK2 and Aurora A levels after MLN8237, MDA cells. Type of experiment: cell-based. The procedure: FIG. 11A-11F Aurora A and LIMK2 positive feedback loop is a common feature in several cancers. […] PC3 cells were transfected with scrambled shRNA (lane 1) or Aurora A-shRNA2 (lane 2) and Aurora A and LIMK2 levels analyzed after 30 h. […] FIG. 11C is a western blot showing that Aurora A ablation in HCT116 and PaCa2 cells depletes LIMK2. HCT116 and PaCa2 cells were transfected with scrambled shRNA (lanes 1 and 3) or Aurora A-shRNA2 (lanes 2 and 4) and Aurora A and LIMK2 levels analyzed. […] FIG. 11E is a western blot showing that LIMK2 acts as a pharmacodynamic biomarker for Aurora A kinase activity. Aurora A was inhibited using 0.5 μM MLN8237 in MDA cells and Aurora A, LIMK2 and actin levels analyzed. […] MDA cells were incubated with MLN8237 (0.5 μM and 1 μM) or the vehicle (DMSO). After 48 h, cells were analyzed using MTT assay. p*<0.05, when compared to the control.
AA-MDA and AA-as7 MDA cells were treated with either DMSO or 1-NM-PP1 (250 nM) for 12 h, followed by cell lysis. For MLN8237 experiment, MDA cells were treated with 1 μM MLN8237 for 12 h.
Cells were harvested and lysed in modified RIPA buffer, supplemented with protease inhibitors. Equal amounts of cell extracts were then used to conduct western blot.
Over a dozen Aurora A targeted drugs are in clinical trials. […] Aurora A was inhibited using MLN8237 and LIMK2 levels analyzed.

In experiment [3] the test system is HA-tagged LIMK2 in MDA cells. In words: Gel shift / Western blot of HA-tagged LIMK2 and mutants in MDA cells after MLN8237. The class given is cell-based. To be noted: additional 12 h. The protocol: FIGS. 8A-8D. Aurora A phosphorylates LIMK2 at 5283, T494 and T505 which increases its protein stability. […] 6-His-tagged wild type, (S283A) LIMK2, (T494A) LIMK2 and (T505A) LIMK2 mutants were phosphorylated using Aurora A/TPX2 and [^32P] ATP for 15 min and the products were separate by electrophoresis. […] Nucleic acids sequence encoding HA-tagged (S283A) LIMK2, (T494A) LIMK2, and (T505A) LIMK2 were transfected in MDA cells. After 30 h, cells were incubated with 0.5 μM MLN8237 for additional 16 h. Gel shift assay was performed using 10% SDS PAGE. Protein levels were analyzed using HA and actin antibodies. FIG. 8C is a western blot showing Aurora A promotes LIMK2 stability by phosphorylating S283, T494 and T505. Nucleic acids sequences encoding HA-tagged wt LIMK2, (S283A, T494A) LIMK2 (2A) and (S283A, T494A, T505A) LIMK2 (3A) were transfected in MDA cells. After 30 h, protein levels were analyzed using Aurora A, HA and actin antibodies. […] Wild type, double (2A) and triple (3A) mutants of LIMK2 were transfected in MDA cells along with 6-His Ubiquitin and LIMK2 ubiquitination analyzed.
Aurora A inhibits LIMK2 degradation by directly phosphorylating it at Ser283, Thr494 and Thr505: Since Aurora A regulates LIMK2 by phosphorylation (FIG. 6A), we set to identify Aurora A-mediated phosphorylation sites on LIMK2. Aurora A preferentially phosphorylates R/K/N-R-X-S/T-B, where B denotes any hydrophobic residue except Pro (Ferrari et al. (2005) Biochem. J. 390, 293-302). […] S283A, T494A and T505A LIMK2 alleles were generated and their phosphorylation analyzed in vitro. Aurora A phosphorylates LIMK2 at all these sites (FIG. 8A). […]
To confirm these findings, HA-tagged LIMK2 double mutant (S283A, T494A) and HAtagged LIMK2 triple mutant (S283A, T494A, T505A) were generated and transfected in MDA cells. […] After 24 h, Aurora A was inhibited using MLN8237 for an additional 12 h, and LIMK2 levels analyzed using HA antibody.

Consider `Nc1ncnc2c1ncn2[C@@H]1O[C@H](COP(=O)(O)OP(=O)(O)OP(=O)(O)O)[C@@H](O)[C@H]1O` [ATP], for which the Kcat in experiment [1] came out at 54.2 s⁻¹; on wild-type Aurora A, 31.3 s⁻¹; in experiment [2], 2.75 s⁻¹; on wild-type Aurora B, 4.27 s⁻¹. The Km in experiment [1] amounted to 17.7 µM; at wild-type Aurora A, 16.2 µM; in experiment [2], 30.4 µM; at wild-type Aurora B it was 23 µM. Also, the Vmax is 7.31 × 10^5 in experiment [1], 4.24 × 10^5 on wild-type Aurora A, 3.30 × 10^4 in experiment [2] and 5.12 × 10^4 on wild-type Aurora B.

With `COc1cc(Nc2ncc3c(n2)-c2ccc(Cl)cc2C(c2c(F)cccc2OC)=NC3)ccc1C(=O)O` [MLN8237], in the experiment with MDA cells, the “Aurora A levels” value is recorded as “reduced” and the LIMK2 levels entry is reported as “depleted LIMK2 levels; also recorded: reduced”. In experiment [3], the “phospho-levels and protein levels of wt LIMK2 and (S283A, T494A) LIMK2” value is “decreased”; the “phosphorylation level (top band) and overall protein level of LIMK2 single mutants (S283A, T494A, T505A)” value is given as “decreased”; the “protein and phospho-levels of LIMK2 triple mutant (S283A, T494A, T505A)” value is “remained unchanged”.

(Values after US20130253037A1, “AURORA A KINASE EFFECTORS” (PURDUE RESEARCH FOUNDATION, priority 2010, published 2013).)
